Experimental data taken from patent US20060160703A1, “Selective herbicides based on substituted cyclic dicarbonyl compounds and safeners” (priority 2003, published 2006).

Assays:
Assay type in all cases: in vivo
Summer barley [1] = experiment: Outdoor trial, post-emergence, tank mix (Example 1); settings: herbicide 0.120 kg/ha, combinations: tank mix mefenpyr-diethyl:compound (I) = 2:1, 100% = plants have died, 0% = like control
Experimental: (§1) Seeds of monocotyledonous and dicotyledonous weed and crop plants are placed into sandy loam in wood fiber pots or in plastic pots, covered with soil and cultivated in a greenhouse, including during the vegetation period outdoors outside of the greenhouse, under good growth conditions. Two-three weeks after sowing, the test plants are treated at the one- to three-leaf stage. […], formulated as wettable powders (WP) or emulsifiable concentrates (EC) are, in various dosages with a water application rate of 300 l/ha (converted), with added wetting agent (0.2 to 0.3%) sprayed onto the plants and the surface of the soil. Three to four weeks after the treatment of the test plants, the effect of the preparations is rated visually in comparison to untreated controls (herbicidal effect in percent (%): 100% effect=plants have died, 0% effect=like control plants).
(§2) If it is additionally to be tested as to whether safeners can improve the plant compatibility of test substances in the case of crop plants, the following options are used for applying the safener:
(§3) the safener is applied together with the test substance as a tank mix (the amount of safener is stated in g/ha or as a ratio, based on the herbicide).
(§4) By comparing the effect of the test substances on crop plants without or with safener treatment, it is possible to assess the effect of the safener substance. [drawing 61] [drawing 62]
(§5) Outdoor trial/Post-emergence
(§6) Ratio mefenpyr-diethyl:compound of the formula (I)=2:1

Winter barley = experiment: as above; settings: herbicide 0.120 kg/ha, combinations: tank mix mefenpyr-diethyl:compound (I) = 2:1
Experimental: as §1, §2, §3, §4, §5, §6

Summer wheat [2] = experiment: as above; settings: herbicide 0.120 kg/ha, combinations: tank mix mefenpyr-diethyl:compound (I) = 2:1
Experimental: as §1, §2, §3, §4, §5, §6

Winter wheat = experiment: as above; settings: herbicide 0.120 kg/ha, combinations: tank mix mefenpyr-diethyl:compound (I) = 2:1
Experimental: as §1, §2, §3, §4, §5, §6

[3] = system: Corn of the Cultivar Lorenzo; experiment: Greenhouse trial, post-emergence, corn (Example 3)
Experimental: as §1, §2
seeds of the crop plants are, before sowing, dressed with the safener substance (the amount of safener is stated in percent, based on the weight of the seed)
(§7) before the application of the test substances, the crop plants are sprayed with the safener at a certain application rate per hectare (usually 1 day before the application of the test substances).
as §4
Greenhouse Trial/Post-Emergence
Corn of the Cultivar Lorenzo
Addition of Safener: • a) Before sowing, seeds of the crop plants are dressed with the compound of the formula (IIe-5) (0.5% of safener, based on the weight of the seeds). • b) One day before the application of the compounds of the formula (I), the crop plants are treated with the compound of the formula (IIe-5) (application rate 100 g/ha). • c) One day before the application of the compounds of the formula (I), the crop plants are treated with isoxadifen (application rate 100 g/ha)
For the spray treatment, the herbicide was formulated as WP20 and the safener as WP10.

Summer barley [4] = experiment: Greenhouse trial, post-emergence, safener one day before (Example 2); settings: combinations: safener 100 g/ha one day before
Experimental: as §1, §2, §7, §4
(§8) Greenhouse trial/Post-emergence
(§9) One day before the application of the compounds of the formula (I), the crop plants are treated with the safener (application rate 100 g/ha).

Summer wheat [5] = experiment: as above; settings: combinations: safener 100 g/ha one day before
Experimental: as §1, §2, §7, §4, §8, §9

[6] = herbicide 0.013 kg/ha; greenhouse, post-emergence; corn cultivar Lorenzo; safener by method a), b) or c) as
[7] = herbicide 0.025 kg/ha; greenhouse, post-emergence; corn cultivar Lorenzo; safener by method a), b) or c) as
[8] = herbicide 0.050 kg/ha; greenhouse, post-emergence; corn cultivar Lorenzo; safener by method a) IIe-5 seed dressing 0.5%, b) IIe-5 100 g/ha one day before, c) isoxadifen 100 g/ha one day before

Structure (SMILES) | herbicidal effect in percent, Summer barley (Summer barley [1]) [%] | herbicidal effect in percent, Winter barley (Winter barley) [%] | herbicidal effect in percent, Summer wheat (Summer wheat [2]) [%] | herbicidal effect in percent, Winter wheat (Winter wheat) [%] | herbicidal effect in percent, Corn [3, 6] [%] | herbicidal effect in percent, Corn [3, 7] [%] | herbicidal effect in percent, Corn [3, 8] [%] | herbicidal effect in percent, Summer barley (Summer barley [4]; herbicide 0.100 kg/ha) [%] | herbicidal effect in percent, Summer wheat (Summer wheat [5]; herbicide 0.100 kg/ha) [%] | herbicidal effect in percent, Summer barley (Summer barley [4]; herbicide 0.025 kg/ha) [%] | herbicidal effect in percent, Summer barley (Summer barley [4]; herbicide 0.050 kg/ha) [%] | herbicidal effect in percent, Summer wheat (Summer wheat [5]; herbicide 0.025 kg/ha) [%] | herbicidal effect in percent, Summer wheat (Summer wheat [5]; herbicide 0.050 kg/ha) [%]
CCc1cc(Cl)cc(Cl)c1C1(Cl)C(=O)NC2(CCC(OC)CC2)C1=O (stereo not drawn) [I-1-1] | 40 | 30 | 15 | 20 | 99 | 100 | 100 | – | – | – | – | – | –
CCc1cc(Br)cc(CC)c1C1(Cl)C(=O)NC(C)(C)C1=O (stereo not drawn) [I-1-3] | – | – | – | – | 0 | 0 | 85 | – | – | – | – | – | –
CCc1cc(Br)cc(CC)c1C1(Cl)C(=O)NC2(CCCCC2)C1=O (stereo not drawn) [I-1-4] | – | – | – | – | – | – | – | 10 | 10 | – | – | – | –
CCc1cc(Cl)cc(Br)c1C1(Cl)C(=O)NC2(CCCCC2)C1=O (stereo not drawn) [I-1-5] | – | – | – | – | – | – | – | 92 | 65 | 20 | 50 | 30 | 60
Cc1cc(-c2ccc(Cl)cc2)cc(C)c1C1(Cl)C(=O)N2CCCCN2C1=O [I-4-1] | – | – | – | – | – | – | – | 80 | 60 | 20 | 80 | 20 | 60
Cc1cc(-c2ccc(Cl)cc2)cc(C)c1C1(Cl)C(=O)N2CCOCCN2C1=O [I-4-2] | – | – | – | – | – | – | – | 97 | 97 | 40 | 95 | 60 | 97
